# Article PMC6455008, “Methylation at the C-3′ in D-Ring of Strigolactone Analogs Reduces Biological Activity in Root Parasitic Plants and Rice” (Frontiers in Plant Science, 2019)
# Like-named read-outs stand apart in the source and are kept apart here.
# How the values were obtained:
# S. hermonthica seeds = test: Parasitic seed germination bioassay, Striga; format: in vivo, Striga hermonthica; settings: for EC50: Striga hermonthica
# Description: (§4) Germination activity of SL analogs on S. hermonthica and P. aegyptiaca seeds was tested by following the procedure described before ([Jamil et al., 2012]). The preconditioned Striga and Phelipanche seeds were treated with 50 μl of each SL analog solution at a concentration range (10^−5–10^−12 M). GR24 and sterile MilliQ water were included as positive and negative controls, respectively. The treated seeds were allowed to germinate in the dark for 24 h at 30°C (for Striga) and for 1 week at 25°C (for Phelipanche). The germinated and non-germinated seeds were counted under a binocular microscope, and germination rate (in %) was calculated.
# (§5) Collected data were analyzed statistically using statistical software package R (version 3.2.2).
# Striga seeds [1] = test: Stability of formulated SL analogs in sand (Striga germination readout); format: physicochemical, Striga hermonthica; settings: 1.0 μM, sand, 30°C, 7 days
# Description: (§1) The stability of formulated SL analogs was further tested in sand culture. About 1.5 ml of silver sand was added in each of 6 wells of 24-well plates. Then, 800 μl of formulated SL analogs (1.0 μM) was added in each of the six wells. The plates were sealed firmly with para-film, wrapped in aluminum foil, and placed at 30°C from day 1 to day 7. After 7 days, glass fiber discs containing preconditioned Striga seeds were placed on the top of each of the six wells and incubated in the dark at 30°C for 24 h. The germinated and non-germinated seeds were counted from each disc. In addition, the viability of formulated SL analogs was also tested in aqueous solution for 7 weeks at 30°C. About 800-μl aqueous solution of formulated SL analogs (1.0 μM) was added in a black Eppendorf tube weekly up to 6 weeks and incubated at 30°C. On the seventh week, about 50 μl of each analog was applied on a glass fiber disc containing preconditioned Striga seed and put again in the dark in sealed petri plates at 30°C for 24 h. Germinated and non-germinated seeds were counted from each disc.
# OsD14 = target: T1, OsD14 (Oryza sativa subsp. japonica, UniProt Q10QA5); test: In vitro YLG hydrolysis competition assay, OsD14; format: biochemical
# T1 construct: made in house
# T1 sequence (Q10QA5 1-318): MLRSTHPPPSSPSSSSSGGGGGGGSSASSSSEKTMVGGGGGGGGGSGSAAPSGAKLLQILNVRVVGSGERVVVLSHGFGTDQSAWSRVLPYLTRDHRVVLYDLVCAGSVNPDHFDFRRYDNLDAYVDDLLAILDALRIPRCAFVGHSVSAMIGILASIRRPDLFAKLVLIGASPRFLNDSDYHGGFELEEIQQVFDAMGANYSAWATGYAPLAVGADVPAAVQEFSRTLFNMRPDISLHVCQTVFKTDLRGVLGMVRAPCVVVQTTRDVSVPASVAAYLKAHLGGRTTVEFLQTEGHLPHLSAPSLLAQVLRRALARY
# Description: (§2) Protein expression and purification of ShHTL7 and Oryza sativa D14 (OsD14) was carried out according to the procedure described earlier ([Jamil et al., 2018]). In vitro Yoshimulactone Green (YLG) hydrolysis assays ([Tsuchiya et al., 2015]) were carried out using 3.0 μM of protein ShHTL7 and OsD14 in a reaction buffer (1X PBS buffer, pH 7.3) with 0.1% DMSO at a 100-μl volume on a 96-well black plate (Greiner). For competitive assays, rac-GR24, AR8, MP13, and MP26 (at range between 0.01 and 50 μM) were co-incubated with 1.0 μM of YLG (Tokyo Chemical Industry Co. Ltd., product number E1238) for 60 min at room temperature. Fluorescent intensity was measured by spectraMax i5 (Molecular Devices) at excitation by 480 nm and detection by 520 nm. The change in fluorescence observed over the course of 1 h of YLG in buffer without protein was subtracted from the data collected in presence of protein. IC50 values were calculated by GraphPad (Prism 7).
# Striga hermonthica = test: Striga emergence in pots under greenhouse conditions (suicidal germination, rice host); format: in vivo; settings: formulated 1.0 μM
# Description: About 10 mg of (ca 4,000) Striga seeds were thoroughly mixed in 2 L of sand and soil mixture (1:1) and added in 3-L perforated plastic pot containing 0.5 L of clean soil in the bottom. Striga seeds were first preconditioned by giving light irrigation and putting pots at 35°C in greenhouse for 10 days. Each pot was sprayed with 20-ml (1.0 μM) formulated SL analogs up to 10 days at 2-day intervals. A light irrigation was given next day of each application to move the compound to Striga seeds and they were allowed to germinate for suicidal death without host for another 1 week. Then, three rice seedlings (5 days old) were planted in the middle of each pot. The rice plants were grown under normal growth condition (30°C, 70% RH) for 8 weeks. Number of emerged Striga plants in each pot were counted.
# Arabidopsis seedlings [2] = test: Arabidopsis lateral root density assay; format: in vivo; settings: Arabidopsis thaliana, compared to control seedlings
# Description: (§3) The sterilized Arabidopsis seeds were grown in petri plates that were first kept at 4°C in darkness for 3 days. For hypocotyl study, the petri plates were exposed to continuous white light for 24 h, then transferred to continuous monochromatic red light (20 μmol m^−2 s^−1, 22°C) conditions for another 4 days. For lateral root density, the plates were vertically grown at 22°C in Percival incubator under long day conditions (16 h at 22°C/8 h at 16°C day/night, 60% relative humidity, 60–70 μmol m^−2 s^−1 white light) for 8 days. After scanning, the hypocotyl length and number of lateral roots were recorded using publicly available ImageJ software.^1
# Arabidopsis seedlings [3] = test: Arabidopsis hypocotyl elongation assay; format: in vivo; settings: Arabidopsis thaliana, compared to control seedlings, read-out: inhibition of hypocotyl growth (reduction in hypocotyl length)
# Description: as §3
# rice d10 mutant = test: Rice micro tillering bioassay (d10 mutant, hydroponic); format: in vivo
# Description: Rice seeds (d10) were sterilized with 2.5% sodium hypochlorite for 15 min. After thorough washing with sterile MilliQ water, the seeds were kept in water for 2 days at 30°C in the dark for imbibition and pre-germination. The pre-germinated seeds were then transferred to moist filter paper in 90-mm petri plates and incubated at 30°C overnight. The plates with germinated seeds were then shifted in a growth cabinet with fluorescent white light (130–180 μM m^−2 s^−1) for 1 week. Seven days-old seedlings were moved to 50-ml falcon tubes (one seedling per tube) containing modified half-strength Hoagland nutrient solution in greenhouse. After 1 week, rice plants were treated with 2.5 μM of each SL analog. Mock and GR24 (2.5 μM) were included as control treatments. Six applications of each SL analog were done two times in a week. After 3 weeks of application, number of tillers per plant, plant height, and fresh biomass were measured at final harvest.
# Striga seeds [4] = test: Stability of formulated SL analogs in aqueous solution under storage (Striga germination readout); format: physicochemical, Striga hermonthica; settings: 1.0 μM
# Description: as §1
# P. aegyptiaca seeds = test: Parasitic seed germination bioassay, Phelipanche; format: in vivo, Phelipanche aegyptiaca
# Description: as §4, §5
# ShHTL7 = target: T2, ShHTL7 (Striga hermonthica, UniProt A0A0M3PNA2); test: In vitro YLG hydrolysis competition assay, ShHTL7; format: biochemical
# T2 sequence (A0A0M3PNA2 1-271): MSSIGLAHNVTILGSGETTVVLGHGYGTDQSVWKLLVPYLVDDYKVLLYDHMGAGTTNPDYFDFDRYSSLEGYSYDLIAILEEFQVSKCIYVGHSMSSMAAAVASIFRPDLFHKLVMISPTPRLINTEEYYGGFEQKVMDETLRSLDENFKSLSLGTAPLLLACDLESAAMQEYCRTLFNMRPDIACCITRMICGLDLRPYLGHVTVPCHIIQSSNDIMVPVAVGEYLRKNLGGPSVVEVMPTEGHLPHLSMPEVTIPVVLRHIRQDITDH
# Description: as §2
smiles,measurement,setting,value
"CC1=C[C@H](O/C=C2/C(=O)O[C@@H]3c4ccccc4C[C@H]23)OC1=O [GR24, reference compound]",Striga germination rate,"S. hermonthica seeds; 1.0 μM, formulated and non-formulated, 24 h at 30°C",75%
same,EC50,"S. hermonthica seeds; read-out: EC50 Striga seed germination, formulated",0.44 nM
same,EC50,"S. hermonthica seeds; read-out: EC50 Striga seed germination, non-formulated",1.9 nM
same,Striga germination rate on seventh day of incubation in sand,Striga seeds [1],around 20%
same,IC50,OsD14,1240 ± 90 nM
same,decrease in Striga emergence compared to mock at 10 WAS,Striga hermonthica; 10 weeks after sowing,82%
same,"Striga hermonthica emergence, 5 WAS","Striga hermonthica; mean ± SE, n=5, 5 weeks after sowing",0.0±0.0
same,"Striga hermonthica emergence, 6 WAS","Striga hermonthica; mean ± SE, n=5, 6 weeks after sowing",0.0±0.0
same,"Striga hermonthica emergence, 7 WAS","Striga hermonthica; mean ± SE, n=5, 7 weeks after sowing",1.0±0.6
same,"Striga hermonthica emergence, 8 WAS","Striga hermonthica; mean ± SE, n=5, 8 weeks after sowing",1.6±0.5
same,"Striga hermonthica emergence, 9 WAS","Striga hermonthica; mean ± SE, n=5, 9 weeks after sowing",1.6±0.5
same,"Striga hermonthica emergence, 10 WAS","Striga hermonthica; mean ± SE, n=5, 10 weeks after sowing",2.4±0.8
same,"percent decrease in Striga hermonthica emergence over mock, 8 WAS","Striga hermonthica; negative = decrease, 8 WAS",-85%
same,"percent decrease in Striga hermonthica emergence over mock, 9 WAS","Striga hermonthica; negative = decrease, 9 WAS",-84%
same,"percent decrease in Striga hermonthica emergence over mock, 10 WAS","Striga hermonthica; negative = decrease, 10 WAS",-82%
same,inhibition at 1 µM,Arabidopsis seedlings [2],53%
same,inhibition at 1 µM,Arabidopsis seedlings [3],37%
same,inhibition at 2.5 µM,"rice d10 mutant; Oryza sativa, read-out: tillering inhibition",76%
same,number of tillers per plant,"rice d10 mutant; SL-deficient d10 mutant, hydroponic, 2.5 μM, twice a week up to 3 weeks, untreated d10 six tillers",1.4 tillers per plant
same,plant height compared to mock,"rice d10 mutant; d10 mutant, 2.5 μM",significant increase in plant height
same,Striga germination rate maintained for 5 weeks of storage,"Striga seeds [4]; 30°C, 5 weeks",around 38%
same,Striga germination rate after 6 weeks of storage,"Striga seeds [4]; 30°C, 6 weeks",11%
same,Striga germination rate before storage,Striga seeds [4]; before storage,76%
same,EC50,"P. aegyptiaca seeds; Phelipanche aegyptiaca, read-out: EC50 P. aegyptiaca seed germination, formulated",9.3 nM
same,P. aegyptiaca germination rate,"P. aegyptiaca seeds; non-formulated, 1.0 μM, 1 week at 25°C",75%
same,IC50,ShHTL7,1640 ± 520 nM
